{"source": "patent US12570684B2", "about": "(UNIVERSITY OF TENNESSEE RESEARCH FOUNDATION, priority 2020, dated 2026)", "key": {"[1]": {"target": "MraY (Hydrogenivirga sp.) (Hydrogenivirga sp. 128-5-R1-1, UniProt Z9Y2G8N0L0)", "sequence (Z9Y2G8N0L0 7-365 limits assumed)": "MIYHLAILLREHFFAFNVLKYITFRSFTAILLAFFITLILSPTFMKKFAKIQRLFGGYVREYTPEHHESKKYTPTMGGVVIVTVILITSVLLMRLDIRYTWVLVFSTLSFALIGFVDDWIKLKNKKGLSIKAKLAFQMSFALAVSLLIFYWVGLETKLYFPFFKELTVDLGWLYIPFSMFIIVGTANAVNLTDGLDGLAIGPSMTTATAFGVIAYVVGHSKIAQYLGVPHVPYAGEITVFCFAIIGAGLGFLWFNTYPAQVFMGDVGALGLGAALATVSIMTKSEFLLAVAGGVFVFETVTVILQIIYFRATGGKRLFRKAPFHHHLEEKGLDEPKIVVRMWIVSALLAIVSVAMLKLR", "experiment": "MraY assay", "assay_type": "biochemical", "description": "Expression and purification of HyMraY. The gene mraY of Hydrogenivirga spp. 128-5-R1-1 was cloned with a N-terminal His6 tag into a pET22b vector. […] The proteins were purified using a nickel, cation exchange, and size exclusion chromatography.\nMraY assay. MraY assay substrates, Park's nucleotide-N^ε-C6-dansylthiourea, neryl phosphate, were chemically synthesized according to the reported procedures.^7 Park's nucleotide-N^ε-C6-dansylthiourea (2 mM stock solution, 1.88 jiL), MgCl2 (0.5 M, 5 jiL), KCl (2 M, 5 jiL), Triton X-100 (0.5%, 5.63 jiL), Tris buffer (pH 8.0, 50 mM), neryl phosphate (0.1 M, 2.25 jiL), and inhibitor molecule (0-50 .ig/mL in Tris buffer) were placed in a 1.5 mL Eppendorf tube. […] (26° C.) and quenched with CHCl3 (100 jiL). […] The aqueous phase was assayed via reverse-phase HPLC."}, "[2]": {"system": "DLD-1", "experiment": "MTT cytotoxicity assay", "assay_type": "cell-based", "settings": "72 h", "description": "(§1) Cell lines. The human primary PDAC cell lines PANC-1 (ATCC CRL 1469); Capan-2 (ATCC HTB-80) and metastatic PDAC cell lines Capan-1 (ATCC HTB-79), AsPC-1 (ATCC CRL-1682), L1210 (ATCC CCL-219), KB (ATCC CCL-17), HeLa, SiHa (ATCC HTB-35), HCT-116 (ATCC CCL-247), DLD-1 (ATCC CCL221), hTERT-HPNE (ATCC CRL-4023), Vero (ATCC CCL-81) were purchased from the ATCC. The cell lines were cultured and maintained in the media as recommended by the supplier. The cell lines were regularly tested for mycoplasma contamination and authenticated. In addition to ATCC cell lines, Dr. Glazer's lab generated patient-derived PDAC cell line, PD002. PD002 Cells were maintained and cultured in DMEM medium supplemented with 20% FBS and 100 IU/mL penicillin and incubated at 37° C. with 5% CO2.\n(§2) MTT cytotoxicity assay. To study the effect of treatment with DPAGT1 inhibitors on the growth and proliferation of cells, a fixed number of cells (5×10^4 cells/well, 196 μL) were plated in a 96 well plate. Into each well 5 μL of drug concentration was added. After 72 h of incubation with drugs at 37° C., 5% CO2, 10 μL of MTT solution (5 mg/mL in PBS) was added and incubated another 3 h at 37° C., 5% CO2. The medium was removed, and DMSO (200 μL/well) was added. Viability was assessed on the basis of cellular conversion of MTT into a purple formazan product. The absorbance of the colored formazan product was measured at 570 nm by BioTek Synergy HT Spectrophotometer."}, "[3]": {"system": "HCT-116", "experiment": "MTT cytotoxicity assay", "assay_type": "cell-based", "settings": "72 h", "description": "as §1, §2"}, "[4]": {"system": "HPNE", "experiment": "MTT cytotoxicity assay", "assay_type": "cell-based", "description": "as §1, §2"}, "[5]": {"system": "KB", "experiment": "MTT cytotoxicity assay", "assay_type": "cell-based", "settings": "72 h", "description": "as §1, §2"}, "[6]": {"system": "L1210", "experiment": "MTT cytotoxicity assay", "assay_type": "cell-based", "description": "as §1, §2"}, "[7]": {"system": "PD002", "experiment": "MTT cytotoxicity assay", "assay_type": "cell-based", "description": "as §1, §2"}, "[8]": {"system": "SiHa", "experiment": "MTT cytotoxicity assay", "assay_type": "cell-based", "settings": "72 h", "description": "as §1, §2"}, "[9]": {"system": "Vero", "experiment": "MTT cytotoxicity assay", "assay_type": "cell-based", "description": "as §1, §2"}, "[10]": {"system": "AsPC-1", "experiment": "MTT cytotoxicity assay", "assay_type": "cell-based, human", "settings": "72 h", "description": "as §1, §2"}, "[11]": {"system": "Capan-2", "experiment": "MTT cytotoxicity assay", "assay_type": "cell-based, human", "settings": "72 h", "description": "as §1, §2"}, "[12]": {"system": "PANC-1", "experiment": "MTT cytotoxicity assay", "assay_type": "cell-based, human", "settings": "72 h", "description": "as §1, §2"}, "[13]": {"system": "Myocobacterium tuberculosis H37Rv, Mycobacterium avium 2285, Mycobacterium smegmatis (ATCC607)", "experiment": "Antimycobacterial activity (MIC)", "assay_type": "cell-based, Mycobacterium spp.", "settings": "M. tuberculosis H37Rv, M. avium 2285, M. smegmatis (ATCC607)"}, "[14]": {"system": "HCT-116", "experiment": "Scratch (wound healing) assay", "assay_type": "cell-based", "settings": "scratch assays", "description": "(§3) Scratch Assay. A confluent monolayer was formed in 24-well plates. The monolayer was scratched by a sterile 200 μL pipette tip and washed with PBS to remove cell debris. Complete medium with CPPB (5) (0, 0.05, 0.1, 0.2 μM) were added and scratched areas were photographed with microscope. The scratched cells were incubated at 37° C., 5% CO2. After 24 h, medium was removed and cells were stained with a 1:1 mixture of crystal violet and PBS for 5 min., washed with PBS twice, and photographed with microscope. Wound areas were measured and recovered areas were calculated."}, "[15]": {"system": "PD002", "experiment": "Scratch (wound healing) assay", "assay_type": "cell-based", "settings": "0.2 μM, 24 h; untreated PD002 63%", "description": "as §3"}, "[16]": {"system": "SiHa", "experiment": "Scratch (wound healing) assay", "assay_type": "cell-based", "settings": "0.2 μM", "description": "as §3"}, "[17]": {"system": "pancreatic cancer cell lines (Capan-2, PANC-1, and AsPC-1)", "experiment": "Scratch (wound healing) assay", "assay_type": "cell-based, human", "settings": "0.05, 0.1, and 0.2 μM, 24 h", "description": "as §3"}, "[18]": {"system": "DPAGT1", "experiment": "Immunofluorescent staining of DPAGT1 expression", "assay_type": "cell-based"}, "[19]": {"system": "PD002", "experiment": "Checkerboard synergy (FIC index) with paclitaxel", "assay_type": "cell-based", "description": "The synergistic or antagonistic activities of CPPB were assessed in vitro via checkerboard technique."}}, "note": "Entries after “also recorded” stand apart in the source; their conditions may differ.", "data": [{"substance": "(2S,3S,4S)-2-((1R)-2-Amino-1-((2S,5R)-5-(2,4-dioxo-3,4-dihydropyrimidin-1(2H)-yl)-4-hydroxy-3-methoxytetrahydrofuran-2-yl)-2-oxoethoxy)-3,4-dihydroxy-N-(4-(4-(4-(trifluoromethoxy)-phenyl)piperidin-1-yl)benzyl)-3,4-dihydro-2H-pyran-6-carboxamide [CPPB]", "values": [{"measurement": "IC50", "setting": "[1]", "result": 10.3, "unit": "µM"}, {"measurement": "IC50", "setting": "[2]", "result": 25, "unit": "µM"}, {"measurement": "IC50", "setting": "[3]", "result": 15, "unit": "µM"}, {"measurement": "IC50", "setting": "[4]; MTT, 72 h", "result": "> 50", "unit": "µM"}, {"measurement": "antiproliferative activity against HPNE", "setting": "[4]; at 50 μM, normal pancreatic ductal cell", "result": "did not show antiproliferative activity"}, {"measurement": "IC50", "setting": "[5]", "result": 35, "unit": "µM"}, {"measurement": "IC50", "setting": "[6]; MTT, 72 h", "result": "> 50", "unit": "µM"}, {"measurement": "antiproliferative activity against L1210", "setting": "[6]; at 50 μM", "result": "did not show antiproliferative activity"}, {"measurement": "cell viability of PD002 (MTT reduction assay)", "setting": "[7]; 50 μM", "result": "significantly decreased"}, {"measurement": "IC50", "setting": "[7]; MTT, 72 h", "result": 35, "unit": "µM"}, {"measurement": "IC50", "setting": "[8]", "result": 15, "unit": "µM"}, {"measurement": "IC50", "setting": "[9]; MTT, 72 h", "result": "> 50", "unit": "µM"}, {"measurement": "antiproliferative activity against Vero", "setting": "[9]; at 50 μM, normal kidney cell", "result": "did not show antiproliferative activity"}, {"measurement": "IC50", "setting": "[10]", "result": 25, "unit": "µM"}, {"measurement": "IC50", "setting": "[11]", "result": 30, "unit": "µM"}, {"measurement": "IC50", "setting": "[12]", "result": 35, "unit": "µM"}, {"measurement": "MIC", "setting": "[13]", "result": "6.25 to 12.5", "unit": "µg/mL"}, {"measurement": "cell migration of HCT-116", "setting": "[14]", "result": "not inhibited; also recorded: did not inhibit migration"}, {"measurement": "wound-healing rate", "setting": "[15]", "result": "approximately 20%"}, {"measurement": "migration of SiHa", "setting": "[16]", "result": "strongly inhibited migration"}, {"measurement": "migration of pancreatic cancer cell lines vs PBS control", "setting": "[17]", "result": "migrated far less"}, {"measurement": "DPAGT1 protein expression", "setting": "[18]", "result": "decreased"}, {"measurement": "DPAGT1 expression in pancreatic cancer cell lines", "setting": "[18]; 0.2 μM", "result": "apparently inhibited"}, {"measurement": "order of decrease of DPAGT1 expression", "setting": "[18]; 0.2 μM", "result": "PANC-1>PD002>>HCT-116"}, {"measurement": "DPAGT1 expression levels of HCT-116", "setting": "[18]; 20 μM", "result": "remained high"}, {"measurement": "DPAGT1 expression of the pancreatic cancer cell lines at high concentration", "setting": "[18]; 2-20 μM", "result": "could not completely be inhibited"}, {"measurement": "synergistic effect with paclitaxel", "setting": "[19]; PD002", "result": "strong synergistic effect"}, {"measurement": "IC50", "setting": "[19]; alone, read-out: IC50 of the single agent against PD002", "result": 35, "unit": "µM"}, {"measurement": "ΣFIC", "setting": "[19]; entry 1, CPPB 0.10 μM + paclitaxel 0.63 μM", "result": 0.50}, {"measurement": "IC50", "setting": "[19]; entry 1, with paclitaxel 0.63 μM, read-out: IC50 CA (CPPB in combination)", "result": 0.1, "unit": "µM"}, {"measurement": "ΣFIC", "setting": "[19]; entry 2, CPPB 0.10 μM + paclitaxel […]", "result": 0.13}, {"measurement": "IC50", "setting": "[19]; entry 2, with paclitaxel […], read-out: IC50 CA (CPPB in combination)", "result": 0.1, "unit": "µM"}, {"measurement": "ΣFIC", "setting": "[19]; entry 3, CPPB 0.20 μM + paclitaxel 0.0049 μM", "result": 0.0096}, {"measurement": "IC50", "setting": "[19]; entry 3, with paclitaxel 0.0049 μM, read-out: IC50 CA (CPPB in combination)", "result": 0.2, "unit": "µM"}, {"measurement": "ΣFIC", "setting": "[19]; entry 4, CPPB 0.20 μM + paclitaxel 0.020 μM", "result": 0.021}, {"measurement": "IC50", "setting": "[19]; entry 4, with paclitaxel 0.020 μM, read-out: IC50 CA (CPPB in combination)", "result": 0.2, "unit": "µM"}, {"measurement": "ΣFIC", "setting": "[19]; entry 5, CPPB 0.20 μM + paclitaxel 0.031 μM", "result": 0.26}, {"measurement": "IC50", "setting": "[19]; entry 5, with paclitaxel 0.031 μM, read-out: IC50 CA (CPPB in combination)", "result": 0.2, "unit": "µM"}, {"measurement": "ΣFIC", "setting": "[19]; entry 6, CPPB 2.0 μM + paclitaxel 0.020 μM", "result": 0.021}, {"measurement": "IC50", "setting": "[19]; entry 6, with paclitaxel 0.020 μM, read-out: IC50 CA (CPPB in combination)", "result": 2, "unit": "µM"}, {"measurement": "ΣFIC", "setting": "[19]; entry 7, CPPB 2.0 μM + paclitaxel 0.039 μM", "result": 0.037}, {"measurement": "IC50", "setting": "[19]; entry 7, with paclitaxel 0.039 μM, read-out: IC50 CA (CPPB in combination)", "result": 2, "unit": "µM"}, {"measurement": "ΣFIC", "setting": "[19]; entry 8, CPPB 2.0 μM + paclitaxel 0.31 μM", "result": 0.26}, {"measurement": "IC50", "setting": "[19]; entry 8, with paclitaxel 0.31 μM, read-out: IC50 CA (CPPB in combination)", "result": 2, "unit": "µM"}]}]}
